From US20140155362A1, “BHQ-CONJUGATES, AND RELATED COMPOUNDS, METHODS OF MAKING THE SAME, AND METHODS OF USE THEREOF” (priority 2011, published 2014)

How the values were obtained:
[1] = Determination of two-photon action cross-sections (δu) at 740 nm; format: physicochemical
Method: Determination of Two-photon Action Cross-Sections (δu).
A portion of BHQ-O-5HT was dissolved in KMOPS buffer and the concentration of the solution was found using UV-Vis absorption in conjunction with Beer's law. Aliquots (25 μL) of this solution were placed in a microcuvette (10×1×1 mm illuminated dimensions) and irradiated with a fs-pulsed and mode-locked Ti:Sapphire laser (Chameleon Ultra II, Coherent) with 740-nm light at an average power of 300 mW. Three samples were irradiated for each of the following time periods: 0, 5, 10, 20, and 40 min. The samples were compiled and analyzed by HPLC. A solution of fluorescein at pH 9.0 was prepared to act as a standard for BHQ-O-5HT because of its well-characterized 2PE cross-section (δaF=30 GM at 740 nm) and quantum yield (QF2=0.9). UV-V is absorption spectroscopy was used to correlate absorption at 488 nm to precise concentration. Aliquots (25 μL) of fluorescein solution were placed in the microcuvette and irradiated by the laser under the same conditions used for the BHQ-O-5HT solution. The fluorescence output of the solution was measured with a radiometer before and after the BHQ-O-5HT samples were irradiated and the two values were averaged. The following equation was used to calculate the two-photon action cross-section for BHQ-O-5HT:
where Np is the number of product molecules formed per second (determined by HPLC), φ is the collection efficiency of the detector (SED033 on an IL-1700, International Light) used to measure the fluorescence of fluorescein passing through the cuvette window and through a 535/545 nm bandpass filter at a right angle to the laser's beam, CF is the concentration of fluorescein, <F(t)> is the time averaged fluorescent photon flux (photons/s) of fluorescein and CS is the initial concentration of the caged compound. The measurements were compiled and the two-photon action cross-section for BHQ-O-5HT was determined to be 0.50 GM. The experiment was repeated for BHQ-N-5HT, and the two-photon action cross-section was determined to be 0.42 GM.
Determination of Two photon Action Cross-Sections (δu).
A portion of BHQ-VAA was dissolved in KMOPS buffer and the concentration of the solution was found using UV-Vis absorption in conjunction with Beer's law. Aliquots (25 μL) of this solution were placed in a microcuvette (10×1×1 mm illuminated dimensions) and irradiated with a fs-pulsed and mode-locked Ti: Sapphire laser (Chameleon Ultra II, Coherent) with 740-nm light at an average power of 300 mW. Three samples were irradiated for each of the following time periods: 0, 5, 10, 20, and 40 min. The samples were compiled and analyzed by HPLC. […] The fluorescence output of the solution was measured with a radiometer before and after the BHQ-VAA samples were irradiated and the two values were averaged. […]

[2] = test system: ex vivo zebrafish brain (optic tectum); test: Electrophysiological recording of PTZ-induced seizure activity in ex vivo zebrafish brain; conditions: PTZ 15 mM-induced seizure
Method: BHQ-O-5HT Mediates the Light Activation of 5HT in an Ex Vivo Zebrafish Brain Preparation (FIG. 1.1).
A microelectrode inserted into the optic tectum was used to record seizure activity induced by application of pentalenetetrazole (PTZ, 15 mM). The ictal and interictal spikes can be observed at regular intervals. After 1040 s, BHQ-O-5HT (1 mM) was added. No change in the amplitude of the ictal spikes was observed. At 1640 s, the preparation was exposed to a brief (˜1 ms) flash of 365-nm light. […] Since 5HT is an inhibitor of seizures,^1,2 this is the expected result.
Procedure for electrophysiological recording in ex vivo zebrafish brain:
An adult zebrafish brain was obtained by dissection in oxygenated artificial cerebrospinal fluid (ACSF).* A sharp glass pipet microelectrode (15 MΩ impedance), loaded with ACSF, was inserted into the optic tectum. A chloride-coated silver wire (0.010 in., A-M Systems, Inc. Sequim, Wash.) reference (15 MΩ impedance) was placed contra-laterally, adjacent to the brain. Neuronal activity was recorded using an MDA-41 AC Differential Amplifier (Bak Electronics, Mount Airy, Md.) and a Tektronix DPO 3012 Digital Phosphor Oscilloscope (Beaverton, Oreg.) using MATLAB. Baseline activity was recorded for 5 min followed by introduction of PTZ (15 mM). […] The response was recorded for 30 min.

O=C(NCCc1c[nH]c2ccc(O)cc12)OCc1ccc2ccc(O)c(Br)c2n1 [BHQ-N-5HT]
δu (two-photon uncaging action cross-section) ([1]; Table 1.1, KMOPS): 0.42 GM

NCCc1c[nH]c2ccc(OCc3ccc4ccc(O)c(Br)c4n3)cc12 [BHQ-O-5HT]
δu (two-photon uncaging action cross-section) ([1]; Table 1.1, KMOPS): 0.50 GM | change in amplitude of ictal spikes, before light ([2]; compound 1 mM added, no irradiation): No change | change in amplitude of ictal spikes, after light flash ([2]; compound 1 mM, brief (~1 ms) flash of 365-nm light): immediate reduction in the amplitude of the ictal spikes

Oc1ccc2ccc(COc3ccccc3)nc2c1Br [BHQ-OPh]
2-photon photolysis uncaging action cross section δu ([1]; pH 7.2 KMOPS): 0.56 GM

COc1cc(CNC(C)=O)ccc1OCc1ccc2ccc(O)c(Br)c2n1 [BHQ-VAA]
δu (two-photon uncaging action cross-section) ([1]; Table 2.1, KMOPS): 0.61 GM
